Assay results from patent publication US9908890B2, “Selective inhibitors of constitutive androstane receptor” (ST. JUDE CHILDREN'S RESEARCH HOSPITAL, priority 2014, dated 2018).

What was measured:
[1] = tested on: CAR-regulated genes in LS174T cells; assay: Quantitative real-time PCR in LS174T cells; type: cell-based; conditions: 1 μM CINPA1 or 5 μM PK11195, 24 h
Text: RNA was extracted, cDNA synthesized, and gene expression analyzed by performing real-time PCR using Taqman probes for each gene. […] LS174T cells were maintained in 10% charcoal-dextran-treated, FBS media for 4 days before the experiment. […] Briefly, human primary hepatocytes (HPH) were maintained in William's E media with supplements for 4 days before treatment. […] RNA extracted was used for cDNA synthesis and measured by performing quantitative real-time PCR assays with Taqman probes.
Briefly, LS174T were maintained in 10% charcoal-dextran treated-FBS media for 4 days prior to the experiment. […] For the data shown in both FIG. 12A and FIG. 12B, RNA extracted was used for cDNA synthesis and measured by quantitative real-time PCR with Taqman probes. MDR1 mRNA was normalized to the internal control 18S and DMSO treated samples were set to 1. *, p<0.05 when compared to DMSO samples.
Cell lines or human hepatocytes were treated with chemicals for 24-48 hours before RNA was extracted and purified by using the Maxwell 16LEV simplyRNA tissue kit (Promega). Then, cDNA was prepared from 2 μg of RNA, and diluted cDNA was used to perform quantitative RT-PCR assays by using TaqMan probes (ABI; 7500 Thermocycler) with 18S as the internal standard.

[2] = tested on: CAR binding to CYP2B6 and CYP3A4 promoter response elements; assay: Chromatin immunoprecipitation (CAR / RNA polymerase II occupancy at promoters); type: cell-based, human
Procedure: FIG. 8B and FIG. 8C show the fold enrichment of CAR at CYP2B6-dNR3 and CYP2B6-PBREM sites, respectively, in the promoter region following the indicated treatment in human primary hepatocytes. […] Protein complexes were cross-linked and chromatin was immunoprecipitated by using anti-CAR antibody or control IgG. CAR occupancy at two separate CYP2B6 promoter regions (dNR3 and PBREM) was determined by performing quantitative RT-PCR assays. Fold-enrichment normalized to IgG control was plotted. Data represent the mean±SD of 3 experiments. *, p<0.01 comparing CITCO treatment to DMSO treatment.
FIG. 9A, FIG. 9B, and FIG. 9C show the fold enrichment of CAR at CYP2B6-dNR3, CYP3A4-XREM, and CYP2B6-dNR3 sites, respectively, in the promoter region following the indicated treatment in human primary hepatocytes or HepG2-hCAR1 cells, as indicated in the figures. Briefly, in FIG. 9A and FIG. […] 9C HepG2-hCAR1 stable cells were treated for […] with DMSO, 1 μM CITCO, 5 μM CINPA1, or 1 μM CITCO+5 μM CINPA1. Protein complexes were cross-linked and chromatin was immunoprecipitated by using anti-CAR antibody, anti-RNA polymerase II (RPol) antibody, or control IgG. CAR or RPol occupancy at the CYP2B6-dNR3 region and CYP3A4-XREM region was determined by performing quantitative RT-PCR assays. Fold-enrichment was normalized to IgG control. Data represent the mean±SD of 3 experiments. *, p<0.001 and #, p<0.01 comparing CITCO to DMSO samples. **, p<0.001 and ##, p<0.01 comparing CITCO+CINPA1 to CITCO samples.
ChIP was performed as described previously (Cherian, M. T., et al. (2012) J. Biol. Chem. 287, 23368-23380). Briefly, human hepatocytes in 6-well plates were maintained for 3-4 days in Williams E medium containing Primary Hepatocyte Maintenance Supplement (Life Technologies), with daily media changes. Nine wells were used for each treatment group. […] The HepG2-hCAR1 stable cells in FIG. 9 were treated with DMSO, 1 μM CITCO, 5 μM CINPA1, or 1 μM CITCO+5 μM CINPA1 for […]. In FIG. 9, the hepatocytes from donor 7 were treated with DMSO, 0.1 μM CITCO, 1 μM CINPA1, or 0.1 μM CITCO+1 μM CINPA1 for 45 min. Proteins were cross-linked with 1% formaldehyde for 10 min. Cell extracts were digested for 10 min with 50 units of micrococcal nuclease (New England Biolabs) at 37° C. and further sonicated to yield sheared DNA fragments having an average length of 200-1000 base pairs. The sonicated samples were pelleted by centrifugation, and the supernatant was diluted 3- to 5-fold with ChIP dilution buffer (0.01% SDS, 1.1% Triton X-100, 1.2 mM EDTA, 16.7 mM Tris-HCl, pH 8.1, 167 mM NaCl, and protease inhibitor cocktail). […] Quantitative RT-PCR assays were performed to determine the change in CAR occupancy at various sites of CAR binding. […]

[3] = tested on: HepG2, LS174T, and HEK293T cells; assay: Cell viability (CellTiter-Glo)
Procedure: Cells were treated with indicated compounds for 24 h, and viability was measured by using CellTiter-Glo® reagent. […] Cell viability was measured 4 days post treatment by using CellTiter-Glo® reagent. Viability of cells treated with DMSO (negative control) was set to 100% in all assays.

[4] = human hepatocytes, 0.1 μM CITCO + 1 μM CINPA1, 45 min

Question: For `CCOC(=O)Nc1ccc2c(c1)N(C(=O)CN(CC)CC)c1ccccc1CC2` [CINPA1], which “CYP2B6 mRNA level” value [1] is on record?
Answer: Its value is “moderately reduced the levels of CYP2B6”.

Question: What about the “CYP3A4 mRNA level” value [1] of the same compound?
Answer: The value was “without significantly affecting CYP3A4”.

Question: And the “MDR1 mRNA level” value [1]?
Answer: Its value is “reduced MDR1 levels”.

Question: What about the “CITCO-mediated recruitment of CAR and RNA polymerase II to XREM (dNR3) of the CYP2B6 promoter” value [2, 4] of the same compound?
Answer: Its value is “effectively reduced”.

Question: And the “CITCO-mediated recruitment of CAR and RNA polymerase II to XREM of the CYP3A4 promoter” value [2, 4]?
Answer: Its value is “also reduced”.

Question: And the “CAR recruitment to XREM (dNR3) of the CYP2B6 gene” value ([2]; human primary hepatocytes, 3 donors, overnight, 1 μM CITCO or 5 μM CINPA1)?
Answer: Its value is “prevents CAR recruitment”.

Question: What about the “cytotoxicity at higher concentrations” value ([3]; 30 μM and 60 μM) of the same compound?
Answer: Its value is “cytotoxic to varying degrees”.

Question: What about the general cytotoxicity ([3]; concentration range effective in inhibiting CAR and PXR, 4-day assay) of the same compound?
Answer: The general cytotoxicity was “does not exhibit general cytotoxicity”.
